Experiments:
Format in all cases: in vivo
[1] = tested on: ragweed (common ragweed, Ambrosia elatior); test: Test C preemergence, plant response rating; conditions: Preemergence
Summary of the method: (§1)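 Greenhouse plants rated visually against untreated controls 13–15 d after treatment, scale 0 = no effect to 100 = complete control. Postemergence sprays went onto potted plants 2–18 cm tall (1–4 leaves); preemergence sprays onto soil freshly sown in loam–sand or silt loam, chemicals formulated in non-phytotoxic solvent with surfactant.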

[2] = tested on: foxtail, giant (giant foxtail, Setaria faberii); test: Test C preemergence, plant response rating; conditions: Preemergence
Summary of the method: as §1

[3] = tested on: morningglory (Ipomoea coccinea); test: Test C preemergence, plant response rating; conditions: Preemergence
Summary of the method: as §1

[4] = tested on: waterhemp (common waterhemp, Amaranthus rudis); test: Test C preemergence, plant response rating; conditions: Preemergence
Summary of the method: as §1

[5] = tested on: nutsedge, yellow (yellow nutsedge, Cyperus esculentus); test: Test C preemergence, plant response rating; conditions: Preemergence
Summary of the method: as §1

[6] = tested on: blackgrass (Alopecurus myosuroides); test: Test C preemergence, plant response rating; conditions: Preemergence
Summary of the method: as §1

soybean (Glycine max) = test: Test C preemergence, plant response rating; conditions: Preemergence
Summary of the method: as §1

[7] = tested on: wheat (winter wheat, Triticum aestivum); test: Test C preemergence, plant response rating; conditions: Preemergence
Summary of the method: as §1

[8] = tested on: velvetleaf (Abutilon theophrasti); test: Test C preemergence, plant response rating; conditions: Preemergence
Summary of the method: as §1

[9] = tested on: oilseed rape (Brassica napus); test: Test C preemergence, plant response rating; conditions: Preemergence
Summary of the method: as §1

[10] = tested on: ryegrass, Italian (Italian ryegrass, Lolium multiflorum); test: Test C preemergence, plant response rating; conditions: Preemergence
Summary of the method: as §1

corn (Zea mays) = test: Test C preemergence, plant response rating; conditions: Preemergence
Summary of the method: as §1

[11] = tested on: crabgrass, large (large crabgrass, Digitaria sanguinalis); test: Test C preemergence, plant response rating; conditions: Preemergence
Summary of the method: as §1

[12] = tested on: lambsquarters (Chenopodium album); test: Test C preemergence, plant response rating; conditions: Preemergence
Summary of the method: as §1

[13] = tested on: galium (catchweed bedstraw, Galium aparine); test: Test A postemergence, visual injury rating; conditions: 0 to 100 scale, 0 is no effect, 100 is complete control, approximately 10 days
Summary of the method: (§2)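 Visual 0–100 rating (100 = complete control) taken about 10 d post-treatment relative to untreated checks. Preemergence: directed soil spray on sown loam/sand pots. Postemergence: seedlings 2–10 cm, 1–2 leaf. Non-phytotoxic solvent formulation with surfactant.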

[14] = tested on: barnyardgrass (Echinochloa crus-galli); test: Test A postemergence, visual injury rating; conditions: 0 to 100 scale, 0 is no effect, 100 is complete control, approximately 10 days
Summary of the method: as §2

[15] = tested on: blackgrass (Alopecurus myosuroides); test: Test A postemergence, visual injury rating; conditions: 0 to 100 scale, 0 is no effect, 100 is complete control, approximately 10 days
Summary of the method: as §2

O=C(CCC(F)(F)F)c1c(Br)cccc1Oc1ncc(Cl)cn1 [Compound 92]
Plant response rating, Ragweed ([1]; 125 g ai/ha, scale of 0 to 100): 60 | Plant response rating, Ragweed ([1]; 31 g ai/ha, scale 0 to 100): 55 | Plant response rating, Ragweed ([1]; 62 g ai/ha, scale 0 to 100): 60 | Plant response rating, Foxtail, Giant ([2]; 125 g ai/ha, scale of 0 to 100): 100 | Plant response rating, Foxtail, Giant ([2]; 31 g ai/ha, scale 0 to 100): 100 | Plant response rating, Foxtail, Giant ([2]; 62 g ai/ha, scale 0 to 100): 100 | Plant response rating, Morningglory ([3]; 125 g ai/ha, scale of 0 to 100): 70 | Plant response rating, Morningglory ([3]; 31 g ai/ha, scale 0 to 100): 40 | Plant response rating, Morningglory ([3]; 62 g ai/ha, scale 0 to 100): 60 | Plant response rating, Waterhemp ([4]; 125 g ai/ha, scale of 0 to 100): 100 | Plant response rating, Waterhemp ([4]; 31 g ai/ha, scale 0 to 100): 100 | Plant response rating, Waterhemp ([4]; 62 g ai/ha, scale 0 to 100): 100 | Plant response rating, Nutsedge, Yellow ([5]; 125 g ai/ha, scale of 0 to 100): 50 | Plant response rating, Nutsedge, Yellow ([5]; 31 g ai/ha, scale 0 to 100): 5 | Plant response rating, Nutsedge, Yellow ([5]; 62 g ai/ha, scale 0 to 100): 5 | Plant response rating, Blackgrass ([6]; 125 g ai/ha, scale of 0 to 100): 100 | Plant response rating, Blackgrass ([6]; 16 g ai/ha, scale 0 to 100): 45 | Plant response rating, Blackgrass ([6]; 31 g ai/ha, scale 0 to 100): 80 | Plant response rating, Blackgrass ([6]; 62 g ai/ha, scale 0 to 100): 100 | Plant response rating, Soybean (soybean (Glycine max); 125 g ai/ha, scale of 0 to 100): 60 | Plant response rating, Soybean (soybean (Glycine max); 31 g ai/ha, scale 0 to 100): 40 | Plant response rating, Soybean (soybean (Glycine max); 62 g ai/ha, scale 0 to 100): 70 | Plant response rating, Wheat ([7]; 125 g ai/ha, scale of 0 to 100): 20 | Plant response rating, Wheat ([7]; 31 g ai/ha, scale 0 to 100): 0 | Plant response rating, Wheat ([7]; 62 g ai/ha, scale 0 to 100): 0 | Plant response rating, Velvetleaf ([8]; 125 g ai/ha, scale of 0 to 100): 100 | Plant response rating, Velvetleaf ([8]; 31 g ai/ha, scale 0 to 100): 75 | Plant response rating, Velvetleaf ([8]; 62 g ai/ha, scale 0 to 100): 100 | Plant response rating, Oilseed Rape ([9]; 125 g ai/ha, scale of 0 to 100): 100 | Plant response rating, Oilseed Rape ([9]; 31 g ai/ha, scale 0 to 100): 100 | Plant response rating, Oilseed Rape ([9]; 62 g ai/ha, scale 0 to 100): 100 | Plant response rating, Ryegrass, Italian ([10]; 125 g ai/ha, scale of 0 to 100): 95 | Plant response rating, Ryegrass, Italian ([10]; 31 g ai/ha, scale 0 to 100): 5 | Plant response rating, Ryegrass, Italian ([10]; 62 g ai/ha, scale 0 to 100): 55 | Plant response rating, Corn (corn (Zea mays); 125 g ai/ha, scale of 0 to 100): 40 | Plant response rating, Corn (corn (Zea mays); 16 g ai/ha, scale 0 to 100): 0 | Plant response rating, Corn (corn (Zea mays); 31 g ai/ha, scale 0 to 100): 15 | Plant response rating, Corn (corn (Zea mays); 62 g ai/ha, scale 0 to 100): 35 | Plant response rating, Crabgrass, Large ([11]; 125 g ai/ha, scale of 0 to 100): 100 | Plant response rating, Crabgrass, Large ([11]; 16 g ai/ha, scale 0 to 100): 100 | Plant response rating, Crabgrass, Large ([11]; 31 g ai/ha, scale 0 to 100): 100 | Plant response rating, Crabgrass, Large ([11]; 62 g ai/ha, scale 0 to 100): 100 | Plant response rating, Lambsquarters ([12]; 125 g ai/ha, scale of 0 to 100): 100 | Plant response rating, Lambsquarters ([12]; 31 g ai/ha, scale 0 to 100): 100 | Plant response rating, Lambsquarters ([12]; 62 g ai/ha, scale 0 to 100): 100 | Galium plant response rating ([13]; 31 g ai/ha): 90 | Galium plant response rating ([13]; 125 g ai/ha): 100 | Barnyardgrass plant response rating ([14]; 31 g ai/ha): 40 | Barnyardgrass plant response rating ([14]; 125 g ai/ha): 100 | Blackgrass plant response rating ([15]; 31 g ai/ha): 10 | Blackgrass plant response rating ([15]; 125 g ai/ha): 50
